For the experiment, the target named is T1, PDK1 (Homo sapiens, UniProt O15530).
T1 construct: His6 (N)
T1 sequence (O15530 51-556 limits assumed): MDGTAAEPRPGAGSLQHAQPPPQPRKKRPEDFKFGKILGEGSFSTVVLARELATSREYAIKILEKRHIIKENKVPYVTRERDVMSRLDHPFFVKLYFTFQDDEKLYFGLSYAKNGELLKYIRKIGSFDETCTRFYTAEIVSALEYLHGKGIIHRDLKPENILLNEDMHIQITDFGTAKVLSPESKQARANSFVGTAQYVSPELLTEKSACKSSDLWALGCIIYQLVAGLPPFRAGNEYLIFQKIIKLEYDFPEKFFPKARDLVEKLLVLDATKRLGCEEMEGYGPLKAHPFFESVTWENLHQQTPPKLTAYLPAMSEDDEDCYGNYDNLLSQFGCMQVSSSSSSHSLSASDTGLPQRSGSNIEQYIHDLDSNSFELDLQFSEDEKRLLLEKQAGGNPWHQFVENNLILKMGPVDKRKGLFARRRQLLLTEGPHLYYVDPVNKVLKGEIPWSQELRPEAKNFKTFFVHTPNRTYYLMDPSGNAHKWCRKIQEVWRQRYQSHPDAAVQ
The experiment is described as follows: Test for the inhibition of PDK1 (flashplate, 33P-ATP). The note with it: His6-PDK1 3.4 nM, 4 μM ATP, 30° C., 60 min. Type of experiment: biochemical. As for the experimental part: The experimental batches are carried out in a flashplate system with 384 wells/microtitration plate.
In each case, the PDK1 sample His6-PDK1(1-50)(3.4 nM), the PDK1 substrate biotin-bA-bA-[…] (400 nM), 4 μM ATP (with 0.2 μCi of ^33 P-ATP/well) and the test substance in 50 μl of conventional experimental solution per well are incubated at 30° C. for 60 min. The test substances are employed in corresponding concentrations (if desired in a dilution series). The control is carried out without test substance. The reaction is stopped using standard methods and washed. The activity of the kinase is measured via the incorporated radioactivity in top count. In order to determine the non-specific kinase reaction (blank value), the experimental batches are carried out in the presence of 100 nM staurosporin.
The radioactivity (decompositions per minute) of the blank value (no use of test substance in the presence of staurosporin) is subtracted from all other radioactivity values. The controls (kinase activity without test substance) are set equal to 100 percent and all other radioactivity values (after subtracting the blank value) are expressed set in relation thereto (for example in % of the control).
[formula] IC50 values (50% inhibition) are determined with the aid of statistics programmes, such as, for example, RS1.

Experimental findings from US8575163B2, “Pyrrolopyridinylpyrimidin-2-ylamine derivatives” (Merck Patent GmbH, priority 2009, dated 2013) are described below.

As usually defined, the IC50 is the point on the concentration scale where inhibition reaches its midpoint. A high value points to lower potency. In the case of `CC(O)(c1ccncc1)c1cc(-c2c[nH]c3ncc(-c4cn[nH]c4)cc23)nc(N)n1` (stereo not drawn) [A62, 1-{2-amino-6-[5-(1H-pyrazol-4-yl)-1H-pyrrolo[2,3-b]pyridin-3-yl]pyrimidin-4-yl}-1-pyridin-4-ylethanol], the half-inhibitory concentration (IC50) turned out to be 2.8 nM.
`CC(C)(C)OC(=O)NCCNC(=O)CCn1cc(-c2cnc3[nH]cc(-c4cc(C(C)(O)c5ccccc5)nc(N)n4)c3c2)cn1` (stereo not drawn) [A63, tert-butyl {2-[3-(4-{3-[2-amino-6-(1-hydroxy-1-phenylethyl)pyrimidin-4-yl]-1H-pyrrolo[2,3-b]pyridin-5-yl}pyrazol-1-yl)propionylamino]ethyl}carbamate] showed an IC50 of 110 nM.
The value for `Cn1cc(-c2cnc3[nH]cc(-c4cc(C(C)(O)c5ccncc5)nc(N)n4)c3c2)cn1` (stereo not drawn) [A64, 1-{2-amino-6-[5-(1-methyl-1H-pyrazol-4-yl)-1H-pyrrolo[2,3-b]pyridin-3-yl]-pyrimidin-4-yl}-1-pyridin-4-ylethanol] was 3.3 nM; that for `CC(O)(c1ccccc1)c1cc(-c2c[nH]c3ncc(-c4cnn(CCC(=O)N5CCC(O)C5)c4)cc23)nc(N)n1` (stereo not drawn) [A65, 3-(4-{3-[2-amino-6-(1-hydroxy-1-phenylethyl)pyrimidin-4-yl]-1H-pyrrolo-[2,3-b]pyridin-5-yl}pyrazol-1-yl)-1-(3-hydroxypyrrolidin-1-yl)propan-1-one] was 25 nM.
For `CC(O)(c1ccccc1)c1cc(-c2c[nH]c3ncc(-c4cnn(CCC(=O)N5CCCCC5)c4)cc23)nc(N)n1` (stereo not drawn) [A66, 3-(4-{3-[2-amino-6-(1-hydroxy-1-phenylethyl)pyrimidin-4-yl]-1H-pyrrolo-[2,3-b]pyridin-5-yl}pyrazol-1-yl)-1-piperidin-1-ylpropan-1-one], it took 91 nM to reach half-maximal inhibition (IC50).
As to `CC(O)(c1ccccc1)c1cc(-c2c[nH]c3ncc(-c4cnn(CCC(=O)N5CCOCC5)c4)cc23)nc(N)n1` (stereo not drawn) [A67, 3-(4-{3-[2-amino-6-(1-hydroxy-1-phenylethyl)pyrimidin-4-yl]-1H-pyrrolo-[2,3-b]pyridin-5-yl}pyrazol-1-yl)-1-morpholin-4-ylpropan-1-one], the concentration for half-maximal inhibition (IC50) came to 28 nM. Against the preceding compound, the IC50 is about 3.2-fold lower.
Regarding `CC(O)(c1ccccc1)c1cc(-c2c[nH]c3ncc(-c4cnn(CCC(=O)N5CCOCC5)c4)cc23)nc(N)n1` (stereo not drawn) [A68, 3-(4-{3-[2-amino-6-(1-hydroxy-1-phenylethyl)pyrimidin-4-yl]-1H-pyrrolo-[2,3-b]pyridin-5-yl}pyrazol-1-yl)-1-morpholin-4-ylpropan-1-one], the IC50 amounted to 74 nM.
Under `COC(=O)CCn1cc(-c2cnc3[nH]cc(-c4cc(C(C)(O)c5ccccc5)nc(N)n4)c3c2)cn1` (stereo not drawn) [A70, methyl 3-(4-{3-[2-amino-6-(1-hydroxy-1-phenylethyl)pyrimidin-4-yl]-1H-pyrrolo[2,3-b]pyridin-5-yl}pyrazol-1-yl)propionate] stands 48 nM; under `CC(O)(c1ccccc1)c1cc(-c2c[nH]c3ncc(-c4cnn(CCC(N)=O)c4)cc23)nc(N)n1` (stereo not drawn) [A71, 3-(4-{3-[2-amino-6-(1-hydroxy-1-phenylethyl)pyrimidin-4-yl]-1H-pyrrolo-[2,3-b]pyridin-5-yl}pyrazol-1-yl)propionamide], 15 nM.
The compound `COCO[C@@](C)(c1cccc(F)c1)c1cc(-c2c[nH]c3ncc(Br)cc23)nc(N)n1` [A72, 4-(5-bromo-1H-pyrrolo[2,3-b]pyridin-3-yl)-6-[(S)-1-(3-fluorophenyl)-1-methoxymethoxyethyl]pyrimidin-2-ylamine] displayed an IC50 of 950 nM.
Under `COCO[C@](C)(c1cccc(F)c1)c1cc(-c2c[nH]c3ncc(Br)cc23)nc(N)n1` [A73, 4-(5-bromo-1H-pyrrolo[2,3-b]pyridin-3-yl)-6-[(R)-1-(3-fluorophenyl)-1-methoxymethoxyethyl]pyrimidin-2-ylamine] stands > 30000 nM.
As to `COCOC(C)(c1ccccc1)c1cc(-c2c[nH]c3ncc(-c4cnn(CCC(N)=O)c4)cc23)nc(N)n1` (stereo not drawn) [A74, 3-(4-{3-[2-amino-6-(1-methoxymethoxy-1-phenylethyl)pyrimidin-4-yl]-1H-pyrrolo[2,3-b]pyridin-5-yl}pyrazol-1-yl)propionamide], inhibition was half-maximal at 68 nM (IC50).
